Results published in patent US7119182B1 (The Regents of the University of California, priority 1991, dated 2006).
Changes are numbered by the printed parent chain. Square brackets hold non-standard residues; d marks the D form. Peptide text beside a SMILES is read from it. * marks the point of attachment. Cha = N[C@@H](CC1CCCCC1)C(=O)O; Piv = CC(C)(C)C(=O)*; Mpa = O=C(O)CCS

What was measured:
thrombin = thrombin (Homo sapiens, UniProt P00734); experiment: Inhibition of thrombin-induced platelet activation (ATP secretion) by thrombin inhibitor peptides; format: cell-based
Description: (§1) About 20 μl Chromolume® reagent (Chronolog Corporation, Havertown, Pa.) is added. In addition to measuring aggregation, ATP secretion is assessed. […] Platelet ATP secretion is measured in a lumiaggregometer as luminescence signal. […] Preincubation is not necessary for testing agonists or antagonists which interact directly with the receptor.
Three antagonist peptides of the invention […] (LDPRP peptide) (SEQ ID NO:74), F^†[…] (F^†PRP peptide) (SEQ ID NO:224) and […] (shortened LDPRP peptide) (SEQ ID NO:190), were tested for their ability to inhibit thrombin-induced platelet activation. […] The mixtures were added in a total volume of 20 μl phosphate buffered saline to 480 μl of platelets prepared and suspended as described in the description under the heading “Assays” hereinabove. Various concentrations of the candidate peptides were used.

thrombin receptor = target: T1, thrombin receptor (Homo sapiens, UniProt P25116); experiment: Platelet activation/aggregation assays in the presence of thrombin, antagonist peptides; format: cell-based; conditions: read-out: IC50 (50% inhibition of activation or aggregation)
T1 construct: In this assay, washed human platelets are prepared by the method of Baenzinger; endogenous in cells; host or cells: washed human platelets
T1 sequence (P25116 22-425): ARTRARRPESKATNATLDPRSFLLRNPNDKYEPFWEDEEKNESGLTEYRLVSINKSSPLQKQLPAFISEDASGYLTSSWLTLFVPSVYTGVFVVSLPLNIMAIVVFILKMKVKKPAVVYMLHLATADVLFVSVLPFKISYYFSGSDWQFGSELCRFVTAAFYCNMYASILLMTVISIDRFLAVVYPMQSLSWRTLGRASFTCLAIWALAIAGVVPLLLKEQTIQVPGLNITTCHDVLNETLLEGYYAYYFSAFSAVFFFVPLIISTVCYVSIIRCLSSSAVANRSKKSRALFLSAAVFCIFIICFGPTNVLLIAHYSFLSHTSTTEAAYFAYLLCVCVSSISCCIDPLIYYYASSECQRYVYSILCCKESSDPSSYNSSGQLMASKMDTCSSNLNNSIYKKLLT
Description: Platelet Aggregation: In this assay, washed human platelets are prepared by the method of Baenzinger, M. G., Meth Enzymol (1974) 31:149–155, or as described by Charo, I. F., et al., J Clin Invest (1977) 63:866–873.
Washed platelets are suspended in modified Tyrode's buffer, pH 7.4 with 2 mM magnesium and 1 mM calcium at a concentration of 10^8 platelets/ml.
as §1
Platelet Aggregation Assay Using Microtiter Plates: Thrombin- or agonist-mediated platelet aggregation as measured with washed platelets in 96-well microtiter plates was performed as described (Fratantoni, J. C. et al., Am J Clin Pathol (1990) 94:613–617).

[1] = target: T2, wild-type thrombin receptor (Homo sapiens, UniProt P25116, C364S/L238V); experiment: ^45Ca release by oocytes expressing wild-type thrombin receptor cRNA; format: cell-based; conditions: control peptide added at 100 μM
T2 construct: expressed in transfected cells; host or cells: Xenopus laevis oocytes microinjected with cRNA
T2 sequence (P25116 22-425 L238V/C364S): T1 sequence (P25116 22-425) with L217V, C343S
Description: (§2) Briefly, intracellular calcium pools are labeled by incubating groups of 30 oocytes in 300 μl calcium-free MBSH containing 50 μCi ^45CaCl2 (10–40 mCi/mg Ca; Amersham) for 4 hours at RT. The labeled oocytes are washed, then incubated in MBSH II without antibiotics for 90 minutes. Groups of 5 oocytes are selected and placed in individual wells in a 24-well tissue culture plate (Falcon 3047) containing 0.5 ml/well MBSH II without antibiotics. This medium is removed and replaced with fresh medium every 10 minutes; the harvested medium is analyzed by scintillation counting to determine ^45Ca released by the oocytes during each 10-minute incubation. The 10-minute incubations are continued until a stable baseline of ^45Ca release per unit time is achieved. Two additional 10-minute collections are obtained, then test medium including agonist is added and agonist-induced ^45Ca release determined.
(§3) The control peptide […] (FSLL peptide) (SEQ ID NO:107) was added at 100 μM and elicited no response.

washed human platelets [2] = target: T3, washed human platelets (Homo sapiens, UniProt P25116); experiment: Platelet ATP secretion in response to agonist peptide; format: cell-based; conditions: for Platelet ATP secretion activity of control peptides: concentrations as high as 200 μM (not shown)
T3 sequence (P25116 42-425): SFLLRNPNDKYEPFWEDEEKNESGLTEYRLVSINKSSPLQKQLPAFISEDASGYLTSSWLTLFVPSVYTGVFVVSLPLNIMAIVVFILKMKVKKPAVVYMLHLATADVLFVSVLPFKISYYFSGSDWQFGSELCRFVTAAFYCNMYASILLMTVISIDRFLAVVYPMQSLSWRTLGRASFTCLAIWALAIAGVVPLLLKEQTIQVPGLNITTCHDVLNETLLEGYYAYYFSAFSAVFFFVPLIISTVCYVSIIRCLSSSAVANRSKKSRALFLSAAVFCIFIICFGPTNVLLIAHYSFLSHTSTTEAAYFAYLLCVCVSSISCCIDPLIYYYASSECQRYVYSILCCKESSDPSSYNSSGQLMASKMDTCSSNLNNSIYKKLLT
Description: as §1
Washed human platelets were prepared as described by Baenzinger, N. G., Meth Enz (1974) 31:149–155; and Charo, I. F., et al., J Clin Invest (1977) 63:866–873. Agonist-induced responses were assessed as described above.
Platelet ATP secretion in response to the indicated final concentrations of “new amino-terminal” peptide was also followed by lumiaggregometry, and the results are shown in FIG. 4.
The data shown in FIG. 4 are raw tracings representative of aggregation or secretion responses obtained in triplicate for each agonist concentration, and are representative of results obtained in more than five separate experiments.

washed human platelets [3] = target: T3, washed human platelets; conditions: for Platelet aggregation activity of control peptides: concentrations as high as 200 μM (not shown)
uninjected oocytes = experiment: Agonist activity on uninjected oocytes; format: cell-based, Xenopus laevis; conditions: uninjected oocytes (not shown)
Description: as §2, §3
The agonist SFLL peptide has no activity on uninjected oocytes (not shown). Qualitatively identical results were obtained when agonist-induced inward current in voltage-clamped oocytes was used as an endpoint rather than agonist-induced ^45Ca release.

CCL-39 cells = experiment: Mitogenic effect, tritiated thymidine incorporation in CCL-39 fibroblasts; format: cell-based, hamster; conditions: 100 μM, 48 hours, quiescent CCL-39 in serum-free medium; FIG. 5
Description: The fibroblast cell line CCL-39 was made quiescent in serum-free medium and then treated for 48 hours with the candidate agonist in the presence of tritiated thymidine. The incorporation of label into DNA was then determined as TCA-insoluble activity, shown as cpm in FIG. 5 using standard techniques. The data shown in the figure represent the mean of six replicate determinations plus or minus 95% confidence.

In the case of `CC(C)C[C@H](NC(=O)[C@H](CC(C)C)NC(=O)[C@H](Cc1ccccc1)NC(=O)[C@@H]1CCCN1C(=O)[C@H](CCCNC(=N)N)NC(=O)[C@@H]1CCCN1C(=O)[C@H](N)Cc1ccccc1)C(=O)N[C@@H](CCCNC(=N)N)C(=O)N[C@@H](CC(N)=O)C(=O)N1CCC[C@H]1C(=O)N[C@@H](CC(N)=O)C(=O)N[C@@H](CC(=O)O)C(=O)N[C@@H](CCCCN)C(=O)N[C@@H](Cc1ccc(O)cc1)C(=O)N[C@@H](CCC(=O)O)C(=O)N1CCC[C@H]1C(=O)N[C@@H](Cc1ccccc1)C(=O)N[C@@H](Cc1c[nH]c2ccccc12)C(=O)N[C@@H](CCC(=O)O)C(=O)N[C@@H](CC(=O)O)C(=O)N[C@@H](CCC(=O)O)C(=O)N[C@@H](CCC(=O)O)C(=O)N[C@@H](CCCCN)C(=O)N[C@@H](CC(N)=O)C(=O)N[C@@H](CCC(=O)O)C(=O)N[C@@H](CO)C(=O)O` [F^†PRP peptide] (H-[dF]PRPFLLRNPNDKYEPFWEDEEKNES-OH), the IC50 (thrombin) is reported as roughly 0.2 µM.

`C[C@H](NC(=O)[C@H](CC(=O)O)NC(=O)[C@H](CC(N)=O)NC(=O)[C@@H]1CCCN1C(=O)[C@H](CC(N)=O)NC(=O)[C@H](CCCNC(=N)N)NC(=O)[C@H](CC1CCCCC1)NC(=O)[C@H](CC1CCCCC1)NC(=O)[C@H](Cc1ccccc1)NC(=O)CCS)C(N)=O` [Mpr-F(Cha) (Cha)RNPNDA-NH2] ([Mpa]F[Cha][Cha]RNPNDA-NH2) gave an IC50 (thrombin receptor) of 50 µM.

Compound `N=C(N)NCCC[C@H](NC(=O)[C@H](CC1CCCCC1)NC(=O)[C@H](CC1CCCCC1)NC(=O)[C@H](Cc1ccccc1)NC(=O)CCS)C(=O)N[C@@H](CC(N)=O)C(=O)N1CCC[C@H]1C(=O)N[C@@H](CC(N)=O)C(=O)N[C@@H](CC(=O)O)C(=O)N[C@@H](CCCCN)C(=O)N[C@@H](Cc1ccc(O)cc1)C(N)=O` [Mpr-F(Cha) (Cha)RNPNDKY-NH2] ([Mpa]F[Cha][Cha]RNPNDKY-NH2) has an IC50 (thrombin receptor) of 75 µM.

`N=C(N)NCCC[C@H](NC(=O)[C@H](CC1CCCCC1)NC(=O)[C@H](CC1CCCCC1)NC(=O)[C@H](Cc1ccccc1)NC(=O)CCS)C(=O)N[C@@H](CC(N)=O)C(=O)N1CCC[C@H]1C(=O)N[C@@H](CC(N)=O)C(=O)N[C@@H](CC(=O)O)C(=O)N[C@@H](CCCCN)C(=O)N[C@@H](Cc1ccc(O)cc1)C(=O)O` [Mpr-F(Cha) (Cha)RNPNDKY] ([Mpa]F[Cha][Cha]RNPNDKY-OH) gave an IC50 (thrombin receptor) of 40 µM.

`CC(C)C[C@H](NC(=O)[C@H](CC(C)C)NC(=O)[C@H](Cc1ccccc1)NC(=O)C(C)(C)C)C(=O)N[C@@H](CCCNC(=N)N)C(N)=O` [Pivaloyl-FLLR-NH2] (Piv-FLLR-NH2) was tested, and the IC50 (thrombin receptor) was 1000 µM.

For FSLLRNPNDKYEPF [FSLL peptide], the “peptide-induced ^45Ca release response” value [1] was “no response”, the “Platelet ATP secretion activity of control peptides” value (washed human platelets [2]) was “without activity” and the “Platelet aggregation activity of control peptides” value (washed human platelets [3]) was “without activity”.

LLRNPNDKYEPF [reference compound] was tested, and the “Platelet ATP secretion activity of control peptides” value (washed human platelets [2]) was “without activity” and the “Platelet aggregation activity of control peptides” value (washed human platelets [3]) was “without activity”.

In the case of SFLLRNPNDKYEPF [“SFLL” peptide], the “agonist activity on uninjected oocytes” value (uninjected oocytes) is reported as “no activity”, the “mitogenic effect (tritiated thymidine incorporation into DNA)” value (CCL-39 cells) is reported as “significant stimulation of growth” and the “Platelet ATP secretion compared with thrombin” value (washed human platelets [2]; peptide at 100 μM, FIG. 4) is reported as “comparably active to 20 μM thrombin”. The “Platelet aggregation compared with thrombin” value (washed human platelets [3]; peptide at 100 μM, FIG. 4) was “comparably active to 20 μM thrombin”.
